Experimental data from patent US4540581A, “Topical nonsteroidal anti-inflammatory compositions and uses” (Bristol-Myers Company, priority 1984, dated 1985).
Where “and” joins values, the source holds several entries; their conditions need not be identical. Identical values can stand only once. Counter-ions that a name gives are not always drawn. Blank lines part the entries; values can stand above or below the compound they belong to.

Key:
[1] = test system: Croton Oil-Induced Mouse Ear Edema; experiment: Croton oil-induced ear edema in mice (Example 1); type: in vivo; details: for Topical Anti-Inflammatory Activity, Croton Oil Assay (Edema): summary grade of % inhibition; for % Inhibition of Croton Oil-Induced Mouse Ear Edema: topical, 6 h, mean of 10 to 15 animals; for Reduction in ear edema in the croton oil assay (in words): zinterol at 1.6 and 0.2 w/v percent, bitolterol at 1.6 w/v percent
Description: In the croton oil assay, (which is a standard test, which is fully described in Tonelli et al, Endocrinology, vol. 77, pp. 625-634, 1965, and which is hereby incorporated herein by reference) topical application of four % croton oil in ethanol (v/v) to the ears of mice causes intercellular edema, vasodilation, and polymorphonuclear leucocyte infiltration into the dermis, leading to an increase over normal ear weight of about 70 to 100%. The inflammatory response is nearly maximal by 6 hours. In the croton oil tests, four volume % croton oil in ethanol was applied to the inner aspect of both ears of each test mouse, and various test materials in vehicle systems were applied to the outer aspect of the ears immediately following croton oil application. Control animals were exposed either to croton oil alone or to croton oil followed by the vehicle alone.
Six hours after exposure to croton oil and/or test material, animals were sacrificed; and punch biopsies of the ears were weighed and compared to the respective vehicle control.
Compounds were tested in simple solutions, including dimethylacetamide/acetone/ethanol (i.e., DMAC/A/E v/v 40/30/30) and N-methyl pyrrolidone/ethanol (NMP/E v/v 50/50). Comparative controls were chosen based on their known activity in each of the three above-described animal assays and included in all three tests (in Examples 1, 2 and 3) hydrocortisone valerate (HCV) in the croton oil and oxazolone assays, indomethacin (which is a potent aspirin-like nonsteroidal anti-inflammatory agent) in the UVB test, and salbutamol (a β2 agonist, discussed above in the Background of the Invention).
(§1) The percent inhibition of induced mouse ear edema (or erythema) for each of the three models (in Examples 1, 2 and 3) is calculated: [formula]

[2] = test system: Oxazolone-Induced Edema in Mouse Ear; experiment: Oxazolone-induced ear edema in mice (Example 2); type: in vivo; details: for Topical Anti-Inflammatory Activity, Oxazolone Assay (Edema): summary grade of % inhibition; for % Inhibition of Oxazolone-Induced Edema in Mouse Ear: topical, mean of 10 to 15 animals
Text: Oxazolone-induced contact sensitization in mice is characterized by edema and cellular infiltration, primarily of the monocyte type, with close to 100% increase in the mouse ear weight.

[3] = test system: UVB-Induced Erythema in Guinea Pig; experiment: UVB-induced erythema in guinea pigs (Example 3); type: in vivo; details: for Topical Anti-Inflammatory Activity, UV-B Assay (Erythema): summary grade of % inhibition; for Activity in the UVB assay (in words): zinterol 3 and 1.6 weight percent, indomethacin 1 weight percent
Description: as §1
In the UVB test, cutaneous erythema is induced in guinea pigs.This test is a standard test widely used for testing anti-inflammatory agents and is fully described in K. F. Swingle, "Evaluation for Anti-Inflammatory Activity", in Anti-Inflammatory Agents, vol. 2, ed. by Scherrer and Whitehouse, pp. 34-122, London: Academic Press, 1974, hereby incorporated herein by reference. In the UVB model, the test material was applied topically to the irradiated sites immediately following exposure to UVB. Erythema was scored on a 0 to 4 scale, 3 and 6 hours after irradiation.

[4] = test system: croton oil-induced ear edema in mice; experiment: Croton oil-induced ear edema in mice, compounds IV and V vs zinterol (Example 4); type: in vivo, Swiss albino mice; details: for % Reduction of Ear Edema Weight as Compared to Control Ears / Anti-inflammatory activity in croton oil-induced ear edema (in words): topical; for % Reduction of Ear Edema Weight as Compared to Control Ears: 6 h, single study; for Anti-inflammatory activity in croton oil-induced ear edema (in words): NMP/ETOH; for % Reduction of Ear Edema Weight as Compared to Control Ears, Mean ± S.D.: mean of studies
Description: In these tests, the anti-inflammatory effect of these three β2 agonists when applied topically to the croton oil-induced ear edema in mice was investigated. In these tests, 50 μl of 4 weight percent croton oil in ethanol was applied to the inner aspects of the right and the left ears of Swiss albino mice, followed immediately by 25 μof suspensions of 0.02, 0.2, and 0.8 weight percent of compound IV and compound V in N-methylpyrrolidone/Ethyl alcohol (i.e., NMP/ETOH) applied to the outer aspect of each ear. Croton oil treated and nontreated control groups were included. These control groups are included in the data as described hereinbefore.
Six hours later, the animals were sacrificed with CO2 gas, and a 5/16 inch punch biopsy of each ear was taken and weighed immediately.
The anti-inflammatory effects for the test agents were assessed by a comparison of the biopsy weights of the test and control groups.

[5] = Solubility of active ingredient in vehicles; type: physicochemical
[6] = 0.02 % weight/volume in NMP/ETOH
[7] = 0.2 % weight/volume in NMP/ETOH
[8] = 0.8 % weight/volume in NMP/ETOH
[9] = 1.6 w/v %, in NMP/ETOH (50/50), salbutamol in Ethanol/H2O (50/50)
[10] = 0.2 w/v %, in DMAC/acetone/ethanol (40:30:30)
[11] = 1.6 w/v %, in DMAC/acetone/ethanol (40:30:30)
[12] = 3 w/v %, in N-methylpyrrolidone:ethanol (1:1)
[13] = 3 w/v %, N-methyl 2-pyrrolidone/ethanol (50/50), 3 h, salbutamol in Ethanol/H2O or NMP/H2O
[14] = 3 w/v %, N-methyl 2-pyrrolidone/ethanol (50/50), 6 h, salbutamol in Ethanol/H2O or NMP/H2O

SMILES: COc1ccc2c(c1)c(CC(=O)O)c(C)n2C(=O)c1ccc(Cl)cc1 [Indomethacin, indomethacin]
Topical Anti-Inflammatory Activity, Croton Oil Assay (Edema) [1]: + (+ = Slight (30-44))
Topical Anti-Inflammatory Activity, Oxazolone Assay (Edema) [2]: + (+ = Slight (30-44))
% Change in UVB-Induced Erythema in Guinea Pig ([3]; 1%, DMAC/acetone/ethanol (40/30/30), 3 h): 72% and 54% and 82%
% Change in UVB-Induced Erythema in Guinea Pig ([3]; 1%, DMAC/acetone/ethanol (40/30/30), 6 h): 43% and 48% and 54%
% Change in UVB-Induced Erythema in Guinea Pig ([3]; 1%, N-methyl 2-pyrrolidone/ethanol (50/50), 3 h): 100% and 93% and 91%
% Change in UVB-Induced Erythema in Guinea Pig ([3]; 1%, N-methyl 2-pyrrolidone/ethanol (50/50), 6 h): 74% and 85% and 87%
Topical Anti-Inflammatory Activity, UV-B Assay (Erythema) [3]: +++ (+++ = high (60%))
Activity in the UVB assay (in words) [3]: good to very good activity

SMILES: CC(C)(Cc1c[nH]c2ccccc12)NCC(O)c1ccc(O)c(NS(C)(=O)=O)c1 (centres unmarked) [Compound V]
% Reduction of Ear Edema Weight as Compared to Control Ears [4, 6]: 29.9%
% Reduction of Ear Edema Weight as Compared to Control Ears [4, 7]: 53.5%
% Reduction of Ear Edema Weight as Compared to Control Ears [4, 8]: 69.9%
Anti-inflammatory activity in croton oil-induced ear edema (in words) [4]: comparable to that of zinterol

SMILES: Cc1ccc(C(=O)Oc2ccc(C(O)CNC(C)(C)C)cc2OC(=O)c2ccc(C)cc2)cc1 (centres unmarked) [Bitolterol, bitolterol]
% Inhibition of Croton Oil-Induced Mouse Ear Edema ([1]; 0.2 w/v %, in NMP/ETOH (50/50)): 42% and 25% and 34%
% Inhibition of Croton Oil-Induced Mouse Ear Edema [1, 9]: 61%
Reduction in ear edema in the croton oil assay (in words) [1]: good to moderate reductions in ear edema

solubility ([5]; organic solvent or mixture, cream vehicle, read-out: Amount that will dissolve in creams): ≤ 7000 µg/mL
Solubility (in words) ([5]; water): water soluble
SMILES: CC(C)(Cc1ccccc1)NCC(O)c1ccc(O)c(NS(C)(=O)=O)c1 (centres unmarked) [zinterol hydrochloride]

SMILES: CC(C)(C)NCC(O)c1ccc(O)c(CO)c1 (centres unmarked) [Salbutamol, salbutamol]
Topical Anti-Inflammatory Activity, Croton Oil Assay (Edema) [1]: + (+ = Slight (30-44))
% Inhibition of Oxazolone-Induced Edema in Mouse Ear [2, 10]: -1% and -9%
% Inhibition of Oxazolone-Induced Edema in Mouse Ear [2, 11]: 2% and 0%
% Inhibition of Oxazolone-Induced Edema in Mouse Ear ([2]; 1.6 w/v %, in N-methylpyrrolidone:ethanol (1:1)): 21% and 28%
% Inhibition of Oxazolone-Induced Edema in Mouse Ear [2, 12]: 31%
Topical Anti-Inflammatory Activity, Oxazolone Assay (Edema) [2]: + (+ = Slight (30-44))
% Change in UVB-Induced Erythema in Guinea Pig ([3]; 1.6 w/v %, DMAC/acetone/ethanol (40/30/30), 3 h, salbutamol in Ethanol/H2O or NMP/H2O): 9%
% Change in UVB-Induced Erythema in Guinea Pig ([3]; 1.6 w/v %, DMAC/acetone/ethanol (40/30/30), 6 h, salbutamol in Ethanol/H2O or NMP/H2O): +4%
% Change in UVB-Induced Erythema in Guinea Pig [3, 13]: 42% and 45%
% Change in UVB-Induced Erythema in Guinea Pig [3, 14]: 32% and 25%
Topical Anti-Inflammatory Activity, UV-B Assay (Erythema) [3]: + (+ = Slight (30-44))

SMILES: CC(Cc1c[nH]c2ccccc12)NCC(O)c1ccc(O)c(NS(C)(=O)=O)c1 (centres unmarked) [Compound IV]
% Reduction of Ear Edema Weight as Compared to Control Ears, Mean ± S.D. [4, 6]: 18.1 ± 10.6%
% Reduction of Ear Edema Weight as Compared to Control Ears [4, 7]: 32.9% and 48.7% and 49.4%
% Reduction of Ear Edema Weight as Compared to Control Ears, Mean ± S.D. [4, 7]: 43.7 ± 9.3%
% Reduction of Ear Edema Weight as Compared to Control Ears [4, 8]: 61.6% and 53.4%
% Reduction of Ear Edema Weight as Compared to Control Ears, Mean ± S.D. [4, 8]: 57.5 ± 5.8%
Anti-inflammatory activity in croton oil-induced ear edema (in words) [4]: comparable to that of zinterol

SMILES: CCCCC(=O)O[C@]1(C(=O)CO)CC[C@H]2[C@@H]3CCC4=CC(=O)CC[C@]4(C)[C@H]3[C@@H](O)C[C@@]21C [HCV, hydrocortisone valerate]
% Inhibition of Croton Oil-Induced Mouse Ear Edema ([1]; 0.2 w/v %, in DMAC/Acetone/ETOH, salbutamol in Ethanol/H2O (50/50), minus = potentiation): 25% and 38% and 34%
% Inhibition of Croton Oil-Induced Mouse Ear Edema ([1]; 0.2 w/v %, in NMP/ETOH (50/50)): 71% and 62% and 64% and 67% and 73%
% Inhibition of Croton Oil-Induced Mouse Ear Edema [1, 9]: 70% and 71%
Topical Anti-Inflammatory Activity, Croton Oil Assay (Edema) [1]: +++ (+++ = high (60%))
% Inhibition of Oxazolone-Induced Edema in Mouse Ear [2, 10]: 16%
% Inhibition of Oxazolone-Induced Edema in Mouse Ear [2, 11]: 36% and 27%
% Inhibition of Oxazolone-Induced Edema in Mouse Ear [2, 12]: 39%
Topical Anti-Inflammatory Activity, Oxazolone Assay (Edema) [2]: + (+ = Slight (30-44))

SMILES: CC(C)(Cc1ccccc1)NCC(O)c1ccc(O)c(NS(C)(=O)=O)c1 (centres unmarked) [Zinterol, 2-hydroxy-5'-[1-hydroxy-2-(2-methyl-1-phenyl-2-propylamino)ethyl]methanesulfonanilide]
% Reduction of Ear Edema Weight as Compared to Control Ears [4, 6]: 14.2% and 23.6%
% Reduction of Ear Edema Weight as Compared to Control Ears, Mean ± S.D. [4, 6]: 18.9 ± 6.6%
% Reduction of Ear Edema Weight as Compared to Control Ears [4, 7]: 39.5% and 66.2% and 46.6%
% Reduction of Ear Edema Weight as Compared to Control Ears, Mean ± S.D. [4, 7]: 50.8 ± 13.8%
% Reduction of Ear Edema Weight as Compared to Control Ears [4, 8]: 68.2% and 56.6%
% Reduction of Ear Edema Weight as Compared to Control Ears, Mean ± S.D. [4, 8]: 62.4 ± 8.2%
Topical cutaneous anti-inflammatory activity in the croton oil assay (in words) ([1]; 1.6 w/v %): high topical cutaneous anti-inflammatory activity
% Inhibition of Croton Oil-Induced Mouse Ear Edema ([1]; 1.6 w/v %, in DMAC/Acetone/ETOH, salbutamol in Ethanol/H2O (50/50)): 69% and 50% and 81% and 66% and 63% and 48% and 45%
% Inhibition of Croton Oil-Induced Mouse Ear Edema [1, 9]: 69% and 63% and 70% and 48% and 73%
Topical Anti-Inflammatory Activity, Croton Oil Assay (Edema) [1]: +++ (+++ = high (60%))
Reduction in ear edema in the croton oil assay (in words) [1]: good to moderate reductions in ear edema
Reduction in ear edema in the oxazolone assay (in words) ([2]; 3 and 1.6 weight percent): slight reduction in ear edema with no dose-related effect
% Inhibition of Oxazolone-Induced Edema in Mouse Ear [2, 12]: 39%
Topical Anti-Inflammatory Activity, Oxazolone Assay (Edema) [2]: + (+ = Slight (30-44))
% Change in UVB-Induced Erythema in Guinea Pig ([3]; 1.6 w/v %, N-methyl 2-pyrrolidone/ethanol (50/50), 3 h): 9%
% Change in UVB-Induced Erythema in Guinea Pig ([3]; 1.6 w/v %, N-methyl 2-pyrrolidone/ethanol (50/50), 6 h): 26%
% Change in UVB-Induced Erythema in Guinea Pig [3, 13]: 48% and 75%
% Change in UVB-Induced Erythema in Guinea Pig [3, 14]: 18% and 25%
Topical Anti-Inflammatory Activity, UV-B Assay (Erythema) [3]: + (+ = Slight (30-44))
Activity in the UVB assay (in words) [3]: slight to moderate activity with no consistent dose effect
